Common to all, as to test: cells
Holding throughout (set-up): Anti-proliferation, 10-point dose response, CellTiter-Glo luminescence (MTT stated for KM12(Luc)), GI50 fitted in Prism
In general terms: ATP-based viability assays read luminescence as a measure of living cells.

One assay deals with U-2-OS. To be noted: Homo sapiens, U2OS, 72 h, read-out: GI50 (µM) a. On the procedure: (§1) To obtain the GI50 value of a substance, cell viability was measured using MTT (G4000, Promega, USA) for KM12(Luc) cell and Cell titer glo (G7572, Promega, USA) for other cell lines. For adherent cells, cells were seeded at 5,000 cells/well in a 96-well plate and treated with a substance one day after cell seeding. For suspension cells, 10,000 cells/well were seeded and the substance was treated after 4 h stabilization of cells. The substance was treated at 10 points of 1:3 serial dilution (0–100 µmol/L) for 72 h. For MTT assay, 15 µL dye solution was added to each well and incubated 4 h at 37°C. 100 µL of solubilization solution was added and followed 1 hr incubation. Absorbance at 570 nm of each well was recorded using EnVision microplate reader (Perkin Elmer). For Cell titer glo assay, Cell titer glo reagent was treated in each well and measured the luminescence by EnVision microplate reader (Perkin Elmer). Viable cells in each well were normalized by using 0.5% DMSO-treated wells (100%). The inhibitor dose−response curve was fitted and GI50 values were calculated using Prism 7.0 software (GraphPad). All assays were performed in duplicate and the standard deviation (SD) was determined from two independent experiments. KM12(Luc) was purchased from the JCRB cell bank. KM12 (Luc) was used within 6 months after purchase and the DNA profiles were confirmed using a short tandem repeat (STR) analysis by the Korean Cell Line Bank. KM12(Luc) cells were maintained in DMEM supplemented with 10% FBS and antibiotics. Parental Ba/F3 cells were purchased from DSMZ and were grown in RPMI1640 supplemented with 10% FBS and antibiotics in the presence of IL3, Transformed Ba/F3 cell lines were grown in the same media without IL3. Cells used in this study were negative for mycoplasma contamination. AN3-CA, HEC1A, U138, 8505C, MKN28, MKN45, A172, A375, Capan-1 HeLa, HEP3B, MCF-7 and MIA-paca-2 cells were maintained in DMEM (Welgene, Korea) supplemented with 10% FBS and antibiotics (Welgene, Korea). Otherwise, all cells were maintained in RPMI (Welgene, Korea) supplemented with 10% FBS and antibiotics (Welgene, Korea). To identify AZD4547 sensitive cell lines other than FGFR-mutant driven cancer cells, GI50 values were determined for AZD4547 against 64 different cancer cell lines, including AN3-CA used as a positive control ( Figure 1A and Table S1 ). […] Also, inhibitory activity of AZD4547 against DDR1 or FLT3 allows suppression of proliferation of U-2-OS and MV4-11 ([43]). Therefore, our attention focused on the inhibitory activity of AZD4547 against KM12(Luc) cell lines which have the TPM3-NTRK1 fusion gene. To exclude the possibility that the anti-proliferation activity of AZD4547 against KM12(Luc) is a common characteristic of FGFR inhibitors, we determined if BGJ398, a representative FGFR inhibitor, is also capable of suppressing proliferation of KM12(Luc) cells ( Figure 1B ).

In a further assay the test system is NCI-H2087. To be noted: Homo sapiens, NCI-H2087, 72 h, read-out: GI50 (µM) a. On the procedure:
as §1

The next assay has as its system PC-3. The settings on record: Homo sapiens, PC-3, 72 h, read-out: GI50 (µM) a. On the procedure: as §1
A further assay deals with HL-60. To be noted: Homo sapiens, HL-60, 72 h, read-out: GI50 (µM) a. As for the experimental part: as §1
Another assay relates to CAPAN-1. To be noted: Homo sapiens, CAPAN-1, 72 h, read-out: GI50 (µM) a. As for the experimental part:
as §1

The subject of a further assay is HCT-116. To be noted: Homo sapiens, HCT-116, 72 h, read-out: GI50 (µM) a. As for the experimental part:
as §1

The test system of a further assay is NCI-H1437. To be noted: Homo sapiens, NCI-H1437, 72 h, read-out: GI50 (µM) a. As for the experimental part:
as §1

The next assay has as its system NCI-H417. The settings on record: Homo sapiens, NCI-H417, 72 h, read-out: GI50 (µM) a. As for the experimental part:
as §1

The subject of a further assay is MOLT-4. To be noted: Homo sapiens, MOLT-4, 72 h, read-out: GI50 (µM) a. As for the experimental part:
as §1

The next assay concerns SW620. To be noted: Homo sapiens, SW-620, 72 h, read-out: GI50 (µM) a. As for the experimental part: as §1
The subject of another assay is HT-29. To be noted: Homo sapiens, HT-29, 72 h, read-out: GI50 (µM) a. As for the experimental part:
as §1

For another assay, the system named is HTH-7. To be noted: KM12-Luc, 72 h, read-out: GI50 (µM) a. On the procedure:
as §1

The structures appear in SMILES notation.

Take `COc1cc(CCc2cc(NC(=O)c3ccc(N4C[C@@H](C)N[C@@H](C)C4)cc3)n[nH]2)cc(OC)c1` [AZD4547]: the concentration for 50% growth inhibition (GI50) – broadly, the concentration at which growth is held to half of that of the control – came to 0.43 µM in the assay with U-2-OS; 27.4 µM in the assay with NCI-H2087; 10.6 µM in the assay with PC-3; 9.31 µM with HL-60; 17.5 µM with CAPAN-1; 7.13 µM with HCT-116. Besides, the GI50 in the assay on NCI-H1437 was 40.3 µM; in the assay with NCI-H417, 5.99 µM; with MOLT-4, 6.59 µM; with SW620, 11 µM; in the assay with HT-29, 9.63 µM; in the assay with HTH-7 it was 6.44 µM.
